US8133847B2, “Pyrido[2,3-B]pyrazine derivatives useful as herbicidal compounds” (Syngenta Limited, priority 2006, dated 2012)

Key:
Assay in all cases: Example B1 herbicidal action, post-emergence, 96-cell seed trays, climatic chamber
Type in all cases: in vivo
Solanum nigrum (SOLNI) = conditions: Application post-emergence, 1000 mg/l spray equivalent to 1000 g/ha, evaluated after 9 days (100=total damage to plant, 0=no damage to plant)
How it was run: (§1)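 Plants at 8–9 days post-sowing (23/17 °C, 13 h light, 50–60% humidity) sprayed post-emergence with 1000 mg/l active ingredient in 10% DMSO, equivalent to 1000 g/ha. Grown on at 24/19 °C, watered twice daily; damage scored after 9 days (0 = none, 100 = total).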

[1] = tested on: Amaranthus retroflexus (AMARE); conditions: Application post-emergence, 1000 mg/l spray equivalent to 1000 g/ha, evaluated after 9 days
How it was run: as §1

Stellaria media (STEME) = conditions: Application post-emergence, 1000 mg/l spray equivalent to 1000 g/ha, evaluated after 9 days (100=total damage to plant, 0=no damage to plant)
How it was run: as §1

[2] = tested on: Nasturtium officinale (NAAOF); parameters: scale not given here; conditions: Application post-emergence, 1000 mg/l spray equivalent to 1000 g/ha, evaluated after 9 days (100=total damage to plant, 0=no damage to plant)
How it was run: as §1

Row | Structure (SMILES) | damage to plant, Solanum nigrum (SOLNI) (Solanum nigrum (SOLNI)) | damage to plant, Amaranthus retroflexus (AMARE) [1] | damage to plant, Stellaria media (STEME) (Stellaria media (STEME)) | damage to plant, Nasturtium officinale (NAAOF) [2]
1 | Cn1c(=O)c(-c2c(F)ccc(F)c2Cl)c(O)c2c1ncc[n+]2[O-] [Compound D6, 7-(2-chloro-3,6-difluorophenyl)-8-hydroxy-5-methyl-1-oxy-5H-pyrido[2,3-b]pyrazin-6-one] | 3 | 5 | 6 | 7
2 | CCn1c(=O)c(-c2c(Cl)ccc(C)c2F)c(OC(=O)C(C)C)c2nccnc21 [Compound C115] | 4 | 4 | 8 | 7
3 | Cn1c(=O)c(-c2c(F)ccc(F)c2F)c(OC(=O)C(C)(C)C)c2nccnc21 [Compound C55] | 0 | 4 | 4 | 0
4 | O=C(Oc1c(-c2c(F)ccc(F)c2Cl)c(=O)[nH]c2nccnc12)c1ccc([N+](=O)[O-])cc1 [Compound B40] | 0 | 6 | 1 | 0
5 | CC(=O)Oc1c(-c2ccccc2OC(F)(F)F)c(=O)n(Cc2ccccc2)c2nccnc12 [Compound C24] | 3 | 0 | 3 | 4
6 | CCC(=O)Oc1c(-c2c(Cl)cccc2Cl)c(=O)n(CCOC)c2nccnc12 [Compound C34] | 0 | 2 | 6 | 5
7 | CCn1c(=O)c(-c2ccc(Cl)cc2Cl)c(OC(C)=O)c2nccnc21 [Compound C6] | 5 | 8 | 9 | 8
8 | CCn1c(=O)c(-c2c(F)ccc(F)c2Cl)c(OC(=O)C(C)C)c2nccnc21 [Compound C11] | 5 | 9 | 8 | 8
9 | O=c1[nH]c2nccnc2c(O)c1-c1cccc(C(F)(F)F)c1Cl [Compound A32] | 2 | 0 | 0 | 0
10 | O=c1[nH]c2nccnc2c(O)c1-c1cccc(Cl)c1Cl [Compound A4] | 2 | 5 | 1 | 2
11 | CCn1c(=O)c(-c2ccc(Cl)cc2Cl)c(OC(=O)C(C)(C)C)c2nccnc21 [Compound C62] | 1 | 7 | 8 | 8
12 | CCn1c(=O)c(-c2c(F)ccc(F)c2F)c(OC(=O)C(C)(C)C)c2nccnc21 [Compound C59] | 0 | 6 | 7 | 7
13 | CCn1c(=O)c(-c2c(F)ccc(F)c2Cl)c(O)c2nccnc21 [Compound D2] | 8 | 6 | 8 | 8
14 | CCn1c(=O)c(-c2ccc(Cl)cc2)c(OC(C)=O)c2nccnc21 [Compound C67] | 0 | 4 | 6 | 8
15 | CC(C)Cn1c(=O)c(-c2c(F)ccc(F)c2Cl)c(OC(=O)C(C)(C)C)c2nccnc21 [Compound C48] | 1 | 0 | 1 | 0
16 | Cn1c(=O)c(-c2c(F)ccc(F)c2Cl)c(OC(=O)c2ccccc2)c2nccnc21 [Compound C84] | 8 | 6 | 7 | 5
17 | CCn1c(=O)c(-c2ccc(Cl)cc2Cl)c(OC(=O)C(C)C)c2nccnc21 [Compound C64] | 8 | 6 | 10 | 10
18 | CCn1c(=O)c(-c2c(C)cc(C)cc2C)c(OC(C)=O)c2nccnc21 [Compound C81] | 4 | 5 | 8 | 8

Row | Structure (SMILES) | damage to plant, Solanum nigrum (SOLNI) (Solanum nigrum (SOLNI)) | damage to plant, Amaranthus retroflexus (AMARE) [1] | damage to plant, Stellaria media (STEME) (Stellaria media (STEME)) | damage to plant, Nasturtium officinale (NAAOF) [2]
19 | O=c1[nH]c2nccnc2c(O)c1-c1ccc(F)cc1C(F)(F)F [Compound A17] | 5 | 8 | 5 | 7
20 | Cn1c(=O)c(-c2c(F)ccc(F)c2Cl)c(OC(=O)c2ccco2)c2nccnc21 [Compound C86] | 7 | 7 | 6 | 6
21 | CC(C)C(=O)Oc1c(-c2cccc(C(F)(F)F)c2Cl)c(=O)n(CC2CC2)c2nccnc12 [Compound C124] | 7 | 9 | 8 | 8
22 | CC(C)C(=O)Oc1c(-c2c(F)ccc(F)c2Cl)c(=O)n(C)c2ncc(Cl)nc12 [Compound C83] | 1 | 0 | 0 | 0
23 | CCC(C)C(=O)Oc1c(-c2c(F)ccc(F)c2Cl)c(=O)n(C)c2nccnc12 (centres unmarked) [Compound C87] | 6 | 6 | 2 | 4
24 | CCC(=O)Oc1c(-c2c(Cl)cccc2Cl)c(=O)[nH]c2nccnc12 [Compound B11] | 0 | 8 | 1 | 3
25 | CC(C)Cn1c(=O)c(-c2ccccc2OC(F)(F)F)c(OC(=O)C(C)(C)C)c2nccnc21 [Compound C46] | 4 | 0 | 1 | 1
26 | Cc1ccc(F)c(-c2c(OC(=O)C(C)C)c3nccnc3n(C)c2=O)c1Cl [Compound C126] | 7 | 6 | 7 | 6
27 | CCCC(=O)Oc1c(-c2c(Cl)cccc2Cl)c(=O)n(C)c2nccnc12 [Compound C38] | 7 | 5 | 7 | 7
28 | Cc1ccc(Cl)c(-c2c(OC(=O)C(C)C)c3nccnc3n(C)c2=O)c1F [Compound C114] | 2 | 2 | 6 | 5
29 | Cn1c(=O)c(-c2c(Cl)ccc(Cl)c2Cl)c(OC(=O)C(C)(C)C)c2nccnc21 [Compound C108] | 3 | 6 | 5 | 5
30 | Cn1c(=O)c(-c2c(F)ccc(F)c2Cl)c(OC(=O)C(C)(C)C)c2nccnc21 [Compound C105] | 5 | 5 | 8 | 6
31 | CCn1c(=O)c(-c2c(F)ccc(F)c2Cl)c(OC(=O)C(C)(C)C)c2nccnc21 [Compound C21] | 0 | 8 | 8 | 8
32 | Cn1c(=O)c(-c2ccc3ccccc3c2)c(OC(=O)C(C)(C)C)c2nccnc21 [Compound C52] | 0 | 0 | 3 | 3
33 | CC(C)C(=O)Oc1c(-c2c(Cl)cccc2C(F)(F)F)c(=O)n(C)c2nccnc12 [Compound C76] | 4 | 7 | 6 | 6
34 | CC(C)C(=O)Oc1c(-c2ccc(F)cc2Cl)c(=O)[nH]c2nccnc12 [Compound B2] | 0 | 5 | 0 | 0
35 | CCn1c(=O)c(-c2ccccc2OC(F)(F)F)c(OC(=O)C(C)(C)C)c2nccnc21 [Compound C26] | 0 | 0 | 2 | 0
